For assay [1], the target named is T1, ACC2 (acetyl-CoA carboxylase 2) (Homo sapiens, UniProt O00763).
T1 construct: catalogue no; 50201, amino acids 39—end, expressed in baculovirus-transfected Sf9 insect cells; His (C); purchased BPS Bioscience (San Diego, Calif.) 50201; host or cells: baculovirus-transfected Sf9 insect cells
Nature of the assay: Human ACC2 enzyme assay (HTRF ADP detection). The class given is biochemical. The note with it: 20 μM acetyl-CoA, 15 min pre-incubation, 20 min at 22° C.; read-out: ACC 2 IC50. For orientation: Time-resolved FRET reads energy transfer from a long-lived donor to a nearby acceptor.
Procedure: The inhibitory activity of the substances of this invention with regard to acetyl-CoA carboxylase 2 (ACC2) was measured using the ACC2 assay described in the paragraphs below. The basic principle of the assay is the measurement of adenosine diphosphate (ADP), which is formed as a by-product, by means of an HTRF®-based competitive immunoassay (HTRF=Homogeneous Time Resolved Fluorescence).
(§1) The amount of complex of d2-labelled ADP and europium cryptate-labelled anti-ADP antibody was then determined by measuring the resonance energy transfer of europium cryptate to d2.

Assay [2] has as its target T2, recombinant human ACC1 (acetyl-CoA carboxylase 1) (Homo sapiens, UniProt Q13085).
T2 construct: NM_198834, amino acids 39—end; FLAG (C); made in house; host or cells: baculovirus-transfected insect cells (Hi5)
Nature of the assay: Human ACC1 enzyme assay (HTRF ADP detection).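 Also: ADP by-product quantified by competitive HTRF immunoassay with europium cryptate anti-ADP antibody and d2-labelled ADP, read after 1 h binding at 22 °C, enzyme near 2.5 ng/µl.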 In kind it is biochemical. Particulars: 50 μM ATP, 20 μM acetyl-CoA, 15 min pre-incubation, 20 min at 22° C.; read-out: ACC 1 IC50.
Procedure: The basic principle of the assay is the measurement of adenosine diphosphate (ADP), which is formed as a by-product, by means of an HTRF®-based competitive immunoassay (HTRF=Homogeneous Time Resolved Fluorescence).
as §1

The source of these data is US20120129833A1, “CYCLIC KETOENOLS FOR THERAPY” (BAYER PHARMA AKTIENGESELLSCHAFT, priority 2010, published 2012).

T1 sequence (O00763 39-2458 limits assumed): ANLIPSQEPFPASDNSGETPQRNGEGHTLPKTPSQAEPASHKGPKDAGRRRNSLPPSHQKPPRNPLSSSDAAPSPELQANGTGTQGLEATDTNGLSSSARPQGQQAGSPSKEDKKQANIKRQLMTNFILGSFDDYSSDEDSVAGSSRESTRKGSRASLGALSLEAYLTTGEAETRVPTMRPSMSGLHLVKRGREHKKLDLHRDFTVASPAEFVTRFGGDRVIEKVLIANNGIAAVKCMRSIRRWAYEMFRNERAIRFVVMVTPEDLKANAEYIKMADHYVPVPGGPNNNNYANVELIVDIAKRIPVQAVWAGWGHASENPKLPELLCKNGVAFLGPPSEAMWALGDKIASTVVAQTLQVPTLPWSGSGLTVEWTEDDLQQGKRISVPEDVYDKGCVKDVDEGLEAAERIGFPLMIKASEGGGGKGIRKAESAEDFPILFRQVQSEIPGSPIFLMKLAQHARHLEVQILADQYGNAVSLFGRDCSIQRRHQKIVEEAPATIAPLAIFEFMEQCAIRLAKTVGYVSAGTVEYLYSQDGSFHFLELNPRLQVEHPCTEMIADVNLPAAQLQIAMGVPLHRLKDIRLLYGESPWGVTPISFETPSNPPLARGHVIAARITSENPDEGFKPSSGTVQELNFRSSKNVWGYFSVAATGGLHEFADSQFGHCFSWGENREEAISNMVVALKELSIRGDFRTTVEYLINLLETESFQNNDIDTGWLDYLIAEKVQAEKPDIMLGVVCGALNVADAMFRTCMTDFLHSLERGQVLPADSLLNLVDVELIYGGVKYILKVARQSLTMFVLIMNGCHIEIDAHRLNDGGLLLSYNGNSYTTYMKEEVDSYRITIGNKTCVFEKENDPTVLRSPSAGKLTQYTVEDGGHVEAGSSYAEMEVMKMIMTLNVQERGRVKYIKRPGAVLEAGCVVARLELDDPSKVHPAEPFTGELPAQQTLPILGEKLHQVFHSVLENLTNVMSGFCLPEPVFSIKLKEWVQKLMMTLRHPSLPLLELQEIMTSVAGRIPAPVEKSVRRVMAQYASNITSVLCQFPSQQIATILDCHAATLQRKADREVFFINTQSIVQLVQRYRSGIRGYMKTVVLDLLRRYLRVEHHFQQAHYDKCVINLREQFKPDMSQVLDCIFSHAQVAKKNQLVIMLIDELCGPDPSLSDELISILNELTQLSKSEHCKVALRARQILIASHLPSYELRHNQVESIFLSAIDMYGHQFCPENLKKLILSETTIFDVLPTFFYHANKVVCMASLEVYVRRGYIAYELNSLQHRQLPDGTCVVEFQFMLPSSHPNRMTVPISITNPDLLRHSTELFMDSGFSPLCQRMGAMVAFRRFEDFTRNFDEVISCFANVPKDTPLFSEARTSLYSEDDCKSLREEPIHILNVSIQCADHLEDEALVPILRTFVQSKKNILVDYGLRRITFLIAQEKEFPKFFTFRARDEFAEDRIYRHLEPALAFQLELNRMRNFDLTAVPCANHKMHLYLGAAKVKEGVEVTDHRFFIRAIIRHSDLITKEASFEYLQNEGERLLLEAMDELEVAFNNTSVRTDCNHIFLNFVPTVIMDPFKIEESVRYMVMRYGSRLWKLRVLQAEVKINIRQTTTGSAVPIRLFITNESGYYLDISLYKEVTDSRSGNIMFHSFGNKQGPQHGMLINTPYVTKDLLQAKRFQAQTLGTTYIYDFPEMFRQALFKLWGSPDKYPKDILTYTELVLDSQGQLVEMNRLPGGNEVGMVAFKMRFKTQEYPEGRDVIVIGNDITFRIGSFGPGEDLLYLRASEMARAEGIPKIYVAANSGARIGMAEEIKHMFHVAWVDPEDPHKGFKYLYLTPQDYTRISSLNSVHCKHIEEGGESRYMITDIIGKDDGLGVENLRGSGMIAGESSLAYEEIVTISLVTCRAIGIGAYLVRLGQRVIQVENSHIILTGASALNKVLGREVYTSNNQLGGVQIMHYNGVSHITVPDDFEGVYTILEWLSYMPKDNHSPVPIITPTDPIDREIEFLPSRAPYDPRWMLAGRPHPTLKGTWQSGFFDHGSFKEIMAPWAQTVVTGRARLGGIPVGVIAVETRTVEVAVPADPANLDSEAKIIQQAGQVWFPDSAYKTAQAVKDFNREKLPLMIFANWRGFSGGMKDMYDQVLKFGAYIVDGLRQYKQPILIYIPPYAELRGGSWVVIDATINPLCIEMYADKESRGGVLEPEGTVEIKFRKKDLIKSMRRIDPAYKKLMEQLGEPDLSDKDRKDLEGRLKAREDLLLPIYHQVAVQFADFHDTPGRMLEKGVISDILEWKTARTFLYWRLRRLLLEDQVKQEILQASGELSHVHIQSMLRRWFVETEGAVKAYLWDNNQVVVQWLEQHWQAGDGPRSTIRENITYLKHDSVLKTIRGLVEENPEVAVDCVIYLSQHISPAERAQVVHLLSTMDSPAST

With `Cc1ccc(-c2ccc(Cl)cc2)cc1C1=C(O)C2(CCCCCCC2)NC1=O` [Example 1-23, 3-(4′-chloro-4-methylbiphenyl-3-yl)-4-hydroxy-1-azaspiro[4.7]dodec-3-en-2-one], the figures for the IC50 in assay [1] and in assay [2] were 485 nM and 584 nM, respectively.

In the case of `Cc1ccc(-c2ccc(Cl)cc2)cc1C1=C(O)C2(CCC(C(C)C)CC2)NC1=O` (stereo not drawn) [Example 1-24, 3-(4′-chloro-4-methylbiphenyl-3-yl)-4-hydroxy-8-(propan-2-yl)-1-azaspiro[4.5]dec-3-en-2-one], the IC50 (in general, the concentration that gives 50% inhibition) amounted to 210 nM in assay [1] and 340 nM in assay [2].

As to `Cc1ccc(-c2ccc(Cl)cc2)cc1C1=C(O)C2(Cc3ccccc3C2)NC1=O` [Example 1-25, 4′-(4′-chloro-4-methylbiphenyl-3-yl)-3′-hydroxy-1,3-dihydrospiro[indene-2,2′-pyrrol]-5′(1′H)-one], the IC50 came out at 3360 nM in assay [1] and 495 nM in assay [2].

Consider `Cc1ccc(-c2ccc(Cl)cc2)cc1C1=C(O)C2(CCCCCC2)NC1=O` [Example 1-26, 3-(4′-chloro-4-methylbiphenyl-3-yl)-4-hydroxy-1-azaspiro[4.6]undec-3-en-2-one], for which the values for the concentration for half-maximal inhibition (IC50) in assay [1] and in assay [2] were 1250 nM and 540 nM, respectively.

`Cc1ccc(-c2ccc(Cl)cc2)cc1C1=C(O)CN(CC(C)C)C1=O` [Example 1-27, 3-(4′-chloro-4-methylbiphenyl-3-yl)-4-hydroxy-1-(2-methylpropyl)-1,5-dihydro-2H-pyrrol-2-one]: the IC50 in assay [1] is above 20000 nM; in assay [2], 472 nM.

In the case of `CCOC1CCC2(CC1)NC(=O)C(c1cc(-c3ccc(Cl)cc3)ccc1C)=C2O` (stereo not drawn) [Example 1-28, 3-(4′-chloro-4-methylbiphenyl-3-yl)-8-ethoxy-4-hydroxy-1-azaspiro[4.5]dec-3-en-2-one], the IC50 amounted to 192 nM in assay [1] and 443 nM in assay [2].

As for `O=C1N[C@]2(CC[C@@H](OCC(F)(F)F)CC2)C(O)=C1c1cc(-c2ccc(Cl)cc2)ccc1Cl` [Example 1-29, (5s,8s)-3-(4,4′-dichlorobiphenyl-3-yl)-4-hydroxy-8-(2,2,2-trifluoroethoxy)-1-azaspiro[4.5]dec-3-en-2-one], the IC50 in assay [1] was 1900 nM; in assay [2] it was 270 nM.

On to `Cc1ccc(-c2ccc(Cl)cc2)c(C)c1C1=C(O)[C@]2(CC[C@H](OCC(F)(F)F)CC2)NC1=O` [Example 1-30, (5s,8s)-3-(4′-chloro-2,4-dimethylbiphenyl-3-yl)-4-hydroxy-8-(2,2,2-trifluoroethoxy)-1-azaspiro[4.5]dec-3-en-2-one], for which the half-inhibitory concentration (IC50) in assay [1] turned out to be 300 nM; in assay [2], 542 nM.

As to `Cc1ccc(-c2ccc(F)cc2)c(C)c1C1=C(O)C2(CCC(OCC(F)(F)F)CC2)NC1=O` (stereo not drawn) [Example 1-31, 3-(4′-fluoro-2,4-dimethylbiphenyl-3-yl)-4-hydroxy-8-(2,2,2-trifluoroethoxy)-1-azaspiro[4.5]dec-3-en-2-one], the IC50 worked out at 5960 nM in assay [1] and 963 nM in assay [2].

Take `Cc1ccc(-c2ccc(F)cc2)cc1C1=C(O)C2(CCC(OCC(F)(F)F)CC2)NC1=O` (stereo not drawn) [Example 1-32, 3-(4′-fluoro-4-methylbiphenyl-3-yl)-4-hydroxy-8-(2,2,2-trifluoroethoxy)-1-azaspiro[4.5]dec-3-en-2-one]: the concentration for half-maximal inhibition (IC50) was 14000 nM in assay [1] and 860 nM in assay [2].

Take `Cc1ccc(-c2ccc(Cl)cc2)cc1C1=C(O)C2(CCC(OCC(F)(F)F)CC2)NC1=O` (stereo not drawn) [Example 1-33, 3-(4′-chloro-4-methylbiphenyl-3-yl)-4-hydroxy-8-(2,2,2-trifluoroethoxy)-1-azaspiro[4.5]dec-3-en-2-one]: the half-maximal inhibitory concentration (IC50) turned out to be 535 nM in assay [1] and 359 nM in assay [2].

Consider `Cc1ccc(-c2ccc(Cl)cc2)c(C)c1C1=C(O)C2(CCC3(CCCO3)CC2)NC1=O` (stereo not drawn) [Example 1-34, 11-(4′-chloro-2,4-dimethylbiphenyl-3-yl)-12-hydroxy-1-oxa-9-azadispiro[4.2.4.2]tetradec-11-en-10-one], for which the figures for the IC50 in assay [1] and in assay [2] were 9400 nM and 470 nM, respectively.

For `Cc1ccc(-c2ccc(F)c(F)c2)cc1C1=C(O)C2(CCC3(CCCO3)CC2)NC1=O` (stereo not drawn) [Example 1-35, 11-(3′,4′-difluoro-4-methylbiphenyl-3-yl)-12-hydroxy-1-oxa-9-azadispiro[4.2.4.2]tetradec-11-en-10-one], the IC50 in assay [1] was 4000 nM; in assay [2], 298 nM.

`Cc1ccc(-c2cc(F)c(F)c(F)c2)cc1C1=C(O)C2(CCOCC2)NC1=O` [Example 1-36, 4-hydroxy-3-(3′,4′,5′-trifluoro-4-methylbiphenyl-3-yl)-8-oxa-1-azaspiro[4.5]dec-3-en-2-one]: the results for the IC50 in assay [1] and in assay [2] were above 20000 nM and 792 nM, respectively.

Turning to `Cc1ccc(-c2ccc(F)c(F)c2)cc1C1=C(O)C2(CCOCC2)NC1=O` [Example 1-37, 3-(3′,4′-difluoro-4-methylbiphenyl-3-yl)-4-hydroxy-8-oxa-1-azaspiro[4.5]dec-3-en-2-one], the IC50 in assay [1] is above 20000 nM; in assay [2], 810 nM.

Consider `O=C1NC2(CCOCC2)C(O)=C1c1cc(-c2cc(F)c(F)c(F)c2)ccc1Cl` [Example 1-38, 3-(4-chloro-3′,4′,5′-trifluorobiphenyl-3-yl)-4-hydroxy-8-oxa-1-azaspiro[4.5]dec-3-en-2-one], for which the IC50 in assay [1] was above 20000 nM; in assay [2], 497 nM.

Regarding `Cc1ccc(-c2ccc(Cl)c(C3=C(O)C4(CCOCC4)NC3=O)c2)cc1F` [Example 1-39, 3-(4-chloro-3′-fluoro-4′-methylbiphenyl-3-yl)-4-hydroxy-8-oxa-1-azaspiro[4.5]dec-3-en-2-one], the IC50 in assay [1] is above 20000 nM; in assay [2], 663 nM.

As for `Cc1ccc(-c2ccc(F)cc2)c(C)c1C1=C(O)C2(CCCCC2)NC1=O` [Example 1-40, 3-(4′-fluoro-2,4-dimethylbiphenyl-3-yl)-4-hydroxy-1-azaspiro[4.5]dec-3-en-2-one], the concentration for half-maximal inhibition (IC50) in assay [1] turned out to be 15000 nM; in assay [2] it was 1200 nM.

Regarding `O=C1NC2(CCOCC2)C(O)=C1c1cc(-c2ccc(F)cc2)ccc1Cl` [Example 1-41, 3-(4-chloro-4′-fluorobiphenyl-3-yl)-4-hydroxy-8-oxa-1-azaspiro[4.5]dec-3-en-2-one], the results for the IC50 in assay [1] and in assay [2] were above 20000 nM and 751 nM, respectively.

As for `CO[C@H]1CC[C@]2(CC1)NC(=O)C(c1c(C)cc(C)c(-c3ccc(F)cc3)c1C)=C2O` [Example 1-42, (5s,8s)-3-(4′-fluoro-2,4,6-trimethylbiphenyl-3-yl)-4-hydroxy-8-methoxy-1-azaspiro[4.5]dec-3-en-2-one], the IC50 is 669 nM in assay [1] and above 20000 nM in assay [2].

For the compound `CO[C@H]1CC[C@]2(CC1)NC(=O)C(c1cc(-c3ccc(F)c(Cl)c3)ccc1C)=C2O` [Example 1-43, (5s,8s)-3-(3′-chloro-4′-fluoro-4-methylbiphenyl-3-yl)-4-hydroxy-8-methoxy-1-azaspiro[4.5]dec-3-en-2-one], the half-maximal inhibitory concentration (IC50) was found to be 10200 nM in assay [1] and 304 nM in assay [2].

`CO[C@H]1CC[C@]2(CC1)NC(=O)C(c1cc(-c3ccc(F)cc3)ccc1Cl)=C2O` [Example 1-44, (5s,8s)-3-(4-chloro-4′-fluorobiphenyl-3-yl)-4-hydroxy-8-methoxy-1-azaspiro[4.5]dec-3-en-2-one]: the concentration for half-maximal inhibition (IC50) in assay [1] was above 20000 nM; in assay [2] it was 915 nM.

Turning to `CO[C@H]1CC[C@]2(CC1)NC(=O)C(c1c(C)ccc(-c3ccc(F)cc3)c1C)=C2O` [Example 1-45, (5s,8s)-3-(4′-fluoro-2,4-dimethylbiphenyl-3-yl)-4-hydroxy-8-methoxy-1-azaspiro[4.5]dec-3-en-2-one], the results for the half-inhibitory concentration (IC50) in assay [1] and in assay [2] were 3610 nM and 776 nM, respectively.

In the case of `COCC1(C)NC(=O)C(c2cc(-c3ccc(Cl)cc3)ccc2C)=C1O` (stereo not drawn) [Example 1-46, 3-(4′-chloro-4-methylbiphenyl-3-yl)-4-hydroxy-5-(methoxymethyl)-5-methyl-1,5-dihydro-2H-pyrrol-2-one], the IC50 in assay [1] was determined as 15800 nM; in assay [2], 812 nM.

Regarding `COCCC1(C)NC(=O)C(c2cc(-c3ccc(Cl)cc3)ccc2C)=C1O` (stereo not drawn) [Example 1-47, 3-(4′-chloro-4-methylbiphenyl-3-yl)-4-hydroxy-5-(2-methoxyethyl)-5-methyl-1,5-dihydro-2H-pyrrol-2-one], the IC50 was above 20000 nM in assay [1] and 923 nM in assay [2].

For `COC1CCC2(C1)NC(=O)C(c1c(C)ccc(-c3ccc(Cl)cc3)c1C)=C2O` (stereo not drawn) [Example 1-48, 3-(4′-chloro-2,4-dimethylbiphenyl-3-yl)-4-hydroxy-7-methoxy-1-azaspiro[4.4]non-3-en-2-one], the IC50 in assay [1] worked out at 8600 nM; in assay [2], 1010 nM.

For `COCC1CCCC2(C1)NC(=O)C(c1cc(-c3ccc(Cl)cc3)ccc1C)=C2O` (stereo not drawn) [Example 1-51, 3-(4′-chloro-4-methylbiphenyl-3-yl)-4-hydroxy-7-(methoxymethyl)-1-azaspiro[4.5]dec-3-en-2-one], the IC50 in assay [1] is 4910 nM; in assay [2] it was 473 nM.

For `COCC1CCCC2(C1)NC(=O)C(c1cc(-c3ccc(Cl)cc3)ccc1Cl)=C2O` (stereo not drawn) [Example 1-52, 3-(4,4′-dichlorobiphenyl-3-yl)-4-hydroxy-7-(methoxymethyl)-1-azaspiro[4.5]dec-3-en-2-one], the figures for the IC50 in assay [1] and in assay [2] were above 20000 nM and 1270 nM, respectively.

On to `COCC1CCC2(CC1)NC(=O)C(c1c(C)ccc(-c3ccc(Cl)cc3)c1C)=C2O` (stereo not drawn) [Example 1-53, 3-(4′-chloro-2,4-dimethylbiphenyl-3-yl)-4-hydroxy-8-(methoxymethyl)-1-azaspiro[4.5]dec-3-en-2-one], for which the half-maximal inhibitory concentration (IC50) in assay [1] came out at 214 nM; in assay [2] it was 506 nM.

As to `COCC1CCC2(CC1)NC(=O)C(c1cc(-c3ccc(Cl)cc3)ccc1Cl)=C2O` (stereo not drawn) [Example 1-54, 3-(4,4′-dichlorobiphenyl-3-yl)-4-hydroxy-8-(methoxymethyl)-1-azaspiro[4.5]dec-3-en-2-one], the concentration for half-maximal inhibition (IC50) was found to be 1100 nM in assay [1] and 220 nM in assay [2].
